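Exposure lasted 48 hours, with cells grown in 96-well plates and compounds tested at five concentrations. GI50: concentration for 50% inhibition of growth.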 Activity calls are given as the source filed them. No stated cut-off is given here; in the data, active = GI50 up to about 1.1 µM and inactive = higher.
Legend:
Assay in all cases: inhibition of tumour cell growth, NCI panel, 48 h
HOP-62 = tested on: HOP-62
SF-295 = tested on: SF-295
TK-10 = tested on: TK-10
HCC 2998 = tested on: HCC 2998
NCI-H23 = tested on: NCI-H23
U-251 = tested on: U-251
MDA-N = tested on: MDA-N
CCRF-CEM = tested on: CCRF-CEM
SK-MEL-5 = tested on: SK-MEL-5
IGROV-1 = tested on: IGROV-1
OVCAR-8 = tested on: OVCAR-8
SNB-19 = tested on: SNB-19
SR = tested on: SR
786-0 = tested on: 786-0
MDA-MB-435 = tested on: MDA-MB-435
SNB-75 = tested on: SNB-75
UACC-257 = tested on: UACC-257
LOX IMVI = tested on: LOX IMVI
EKVX = tested on: EKVX
M19-MEL = tested on: M19-MEL

Measured: GI50

C=CCOn1c(C=C)nc2c(C)cccc21
inactive: HOP-62 3.77 µM | SF-295 5.58 µM | TK-10 2.63 µM | HCC 2998 6.08 µM | NCI-H23 7.74 µM | U-251 1.98 µM | MDA-N 3.13 µM | CCRF-CEM 1.33 µM | SK-MEL-5 3.89 µM | IGROV-1 7.35 µM | OVCAR-8 2.85 µM | SNB-19 5.2 µM | SR 2.46 µM | 786-0 2.18 µM | MDA-MB-435 1.63 µM | SNB-75 3.59 µM | UACC-257 2.99 µM | LOX IMVI 2.9 µM | EKVX 13.5 µM

CC(C)c1ccc(/C=C/c2cc(C(=O)NNC(=O)NC3CCCCC3)nc(S)n2)cc1
inactive: M19-MEL > 100 µM | HOP-62 > 100 µM | SF-295 > 100 µM | TK-10 > 100 µM | HCC 2998 > 100 µM | NCI-H23 > 100 µM | U-251 > 100 µM | SK-MEL-5 > 100 µM | IGROV-1 > 100 µM | OVCAR-8 > 100 µM | SNB-19 > 100 µM | 786-0 > 100 µM | SNB-75 > 100 µM | UACC-257 > 100 µM | LOX IMVI > 100 µM | EKVX > 100 µM

C/N=C(\S)N/N=C/C(C)=N/N/C(S)=N/C
inactive: M19-MEL > 100 µM | HOP-62 > 100 µM | SF-295 > 100 µM | TK-10 > 100 µM | HCC 2998 > 100 µM | NCI-H23 > 100 µM | U-251 > 100 µM | SK-MEL-5 > 100 µM | SNB-19 > 100 µM | 786-0 > 100 µM | LOX IMVI > 100 µM | EKVX > 100 µM

COc1ccc2nc3ccc(OC)cc3c([S+]([O-])Cc3ccc([N+](=O)[O-])cc3)c2c1 (configuration not stated)
inactive: HOP-62 16.1 µM | SF-295 20.6 µM | TK-10 5.9 µM | HCC 2998 17.5 µM | NCI-H23 6.7 µM | U-251 10.9 µM | MDA-N 14.2 µM | CCRF-CEM 2.11 µM | SK-MEL-5 16.7 µM | IGROV-1 5.3 µM | OVCAR-8 3.39 µM | SNB-19 21.3 µM | SR 8.18 µM | 786-0 2.1 µM | MDA-MB-435 8.07 µM | SNB-75 19.3 µM | UACC-257 3.9 µM | LOX IMVI 5.16 µM | EKVX 16.6 µM

Cn1c(-c2cccs2)cc(-c2ccccc2)c1-c1cccs1
inactive: HOP-62 18.2 µM | SF-295 17 µM | TK-10 > 100 µM | HCC 2998 > 100 µM | NCI-H23 4.75 µM | U-251 47.8 µM | MDA-N > 100 µM | CCRF-CEM > 100 µM | SK-MEL-5 18.6 µM | IGROV-1 39.4 µM | OVCAR-8 65.2 µM | SNB-19 12.2 µM | SR 18.2 µM | 786-0 35.4 µM | MDA-MB-435 > 100 µM | SNB-75 > 100 µM | UACC-257 48.2 µM | LOX IMVI > 100 µM | EKVX 22.7 µM

CC(C)(C)OC(=O)NCCCCC(NC(=O)OCc1ccccc1)C(N)=O (configuration not stated)
inactive: HOP-62 > 100 µM | SF-295 > 100 µM | TK-10 > 100 µM | HCC 2998 > 100 µM | NCI-H23 > 100 µM | U-251 > 100 µM | MDA-N > 100 µM | CCRF-CEM > 100 µM | SK-MEL-5 58.3 µM | IGROV-1 > 100 µM | OVCAR-8 > 100 µM | SNB-19 > 100 µM | SR > 100 µM | 786-0 > 100 µM | MDA-MB-435 > 100 µM | SNB-75 > 100 µM | UACC-257 > 100 µM | LOX IMVI > 100 µM | EKVX 82.2 µM

COC(=O)c1cc2c(n1S(=O)(=O)c1ccc(C)cc1)C(=O)C(=O)c1[nH]cc(C(=O)OCc3ccccc3)c1-2
active: HOP-62 0.149 µM | SF-295 0.12 µM | TK-10 0.716 µM | HCC 2998 0.218 µM | NCI-H23 0.0649 µM | U-251 0.172 µM | MDA-N < 0.01 µM | CCRF-CEM 0.0873 µM | SK-MEL-5 0.0237 µM | IGROV-1 0.197 µM | OVCAR-8 0.0989 µM | SNB-19 0.191 µM | SR 0.0906 µM | 786-0 0.23 µM | MDA-MB-435 < 0.015 µM | SNB-75 0.147 µM | UACC-257 0.0322 µM | LOX IMVI 0.0553 µM | EKVX 0.279 µM

Cc1ccccc1C(=O)N1CCc2c([nH]c3ccccc23)C1
inactive: HOP-62 33.8 µM | SF-295 29.1 µM | TK-10 28.2 µM | HCC 2998 18.5 µM | NCI-H23 21.4 µM | U-251 18 µM | MDA-N 18.9 µM | CCRF-CEM 24.8 µM | SK-MEL-5 15.9 µM | IGROV-1 25.7 µM | OVCAR-8 27 µM | SNB-19 41.7 µM | SR 13.7 µM | 786-0 22.9 µM | MDA-MB-435 14.4 µM | SNB-75 20.6 µM | UACC-257 23.9 µM | LOX IMVI 21.9 µM | EKVX 24.9 µM

Reference: ChEMBL document CHEMBL1201862, “PubChem BioAssay data set” (2004)
